In patent publication US20080108697A1, “Device for packaging an oxaliplatin solution” (priority 2001, published 2008):

Tests used:
[1] = Stability study under accelerated conditions (40° C., 75% humidity); type: physicochemical; settings: aqueous solution in the selected bottles and filling conditions, humidity 75%
Method: Finally, it will be noted that the applicant has carried out a study of stability under accelerated conditions intended to anticipate stabilities on a scale of 3 years. To this effect, bottles were placed in a chamber thermostated at a temperature of 40° C. and in an atmosphere having a humidity of 75%. Samples were regularly collected and then analyzed.

[2] = plastic material free of PVC in direct contact; period of at least one year; cited from earlier work
[3] = Stability of aqueous oxaliplatin preparations in type I glass bottles under normal conditions (25° C., 60% relative humidity), total impurities by HPLC; type: physicochemical; settings: for Level of impurity 5 years: 2 mg/ml, 50 ml bottle (ratio 0.12); for Level of impurity 5 years / Level of impurity 1 month / Level of impurity 2.5 months / Level of impurity 4 months / Level of impurity 5.5 months / Level of impurity 7 months / Level of impurity 10 months: 25° C./60% RH
Method: To carry out this trial, four series of bottles, consisting of a colorless type I glass, all of cylindrical shape but of different volumes, were used. Table 2 assembles, for each series of bottles, their so-called “useful” capacity, their so-called “brim” capacity, the inner diameter of these bottles, that of their neck and their height.
These bottles, used for the first time, were subjected beforehand to three cycles of washing and rinsing with hot water heated to about 50° C. and water of so-called PI grade before being dried.
Three oxaliplatin stock solutions at concentrations of 2 mg/ml, 5 mg/ml and 7 mg/ml, respectively, were prepared in the usual manner using PI grade water as solvent. No particular stabilizing agent was used.
Aliquots of these preparations were collected and then transferred under aseptic filling conditions into different bottles so as to reach the respective level corresponding to the heights indicated below. The bottles were then hermetically closed by seaming a cap.
For studies of stability under normal conditions, a first portion of these bottles were then placed in a first chamber thermostated at a temperature of 25° C. and at a relative humidity of 60%. These bottles were maintained upright and at rest without particular stirring for the periods indicated below.
Samples were collected at the periods indicated and then analyzed by high-performance liquid chromatography according to a conventional method in order to quantify the level of noncharacterized total impurities, expressed as a percentage by weight, relative to the quantities of oxaliplatin present in each of the samples.
This study was performed on groups of bottles having a useful capacity of 5 ml, 15 ml and 20 ml, respectively, filled as described above with aliquots of a stock solution at a concentration of 5 mg/ml, and then stored under the conditions mentioned above for a period of at least 10 months.
Samples were collected at periods of 1 month, and then 2.5 months, 4 months, 5.5 months, 7 months and 10 months, respectively, after bottling.
This study was performed as above, with the difference that the bottles were loaded with aliquots of a stock solution at a concentration of 7 mg/ml and samples were collected at the same periods.
This study was performed on three batches of bottles having the same useful capacity of 50 ml, filled as described above with aliquots of the same volume of a stock solution at a concentration of 2 mg/ml, and then stored under the conditions mentioned above for a period of 5 years. At the end of this period, samples were collected for analysis.

[4] = 5 mg/ml, 5 ml bottle (ratio 0.26)
[5] = 5 mg/ml, 15 ml bottle (ratio 0.20)
[6] = 5 mg/ml, 20 ml bottle (ratio 0.17)
[7] = deduced from curve of FIG. 1 (4 months), c=5 mg/ml
[8] = deduced from curve of FIG. 2 (4 months), printed c=5 mg/ml

O=C1[O][Pt]2([NH][C@@H]3CCCC[C@H]3[NH]2)[O]C1=O [oxaliplatin, Oxaliplatin]
period of storage suggested by accelerated stability study [1]: at least 36 months | degradation on preservation in flexible bags for infusion [2]: no degradation | Level of impurity 5 years ([3]; batch 1): 1.47 % by weight | Level of impurity 5 years ([3]; batch 2): 1.56 % by weight | Level of impurity 5 years ([3]; batch 3): 1.55 % by weight | Level of impurity 1 month ([3]; 5 mg/ml aqueous solution, bottle useful capacity 5 ml (surface area/volume ratio 0.26)): 2.34 % by weight | Level of impurity 2.5 months [3, 4]: 2.55 % by weight | Level of impurity 4 months [3, 4]: 2.89 % by weight | Level of impurity 5.5 months [3, 4]: 2.70 % by weight | Level of impurity 7 months [3, 4]: 3.19 % by weight | Level of impurity 10 months [3, 4]: 3.64 % by weight | Level of impurity 1 month [3, 5]: 1.15 % by weight | Level of impurity 2.5 months [3, 5]: 1.16 % by weight | Level of impurity 4 months [3, 5]: 1.23 % by weight | Level of impurity 5.5 months [3, 5]: 1.50 % by weight | Level of impurity 7 months [3, 5]: 1.56 % by weight | Level of impurity 10 months [3, 5]: 1.59 % by weight | Level of impurity 1 month [3, 6]: 1.06 % by weight | Level of impurity 2.5 months [3, 6]: 1.11 % by weight | Level of impurity 4 months [3, 6]: 1.13 % by weight | Level of impurity 5.5 months [3, 6]: 1.38 % by weight | Level of impurity 7 months [3, 6]: 1.42 % by weight | Level of impurity 10 months [3, 6]: 1.45 % by weight | Level of impurity 1 month ([3]; 7 mg/ml, 5 ml bottle): 1.87 % by weight | Level of impurity 2.5 months ([3]; 7 mg/ml, 5 ml bottle): 2.09 % by weight | Level of impurity 4 months ([3]; 7 mg/ml, 5 ml bottle): 2.33 % by weight | Level of impurity 5.5 months ([3]; 7 mg/ml, 5 ml bottle): 2.56 % by weight | Level of impurity 7 months ([3]; 7 mg/ml, 5 ml bottle): 2.75 % by weight | Level of impurity 10 months ([3]; 7 mg/ml, 5 ml bottle): 2.98 % by weight | Level of impurity 1 month ([3]; 7 mg/ml, 15 ml bottle): 0.96 % by weight | Level of impurity 2.5 months ([3]; 7 mg/ml, 15 ml bottle): 1.03 % by weight | Level of impurity 4 months ([3]; 7 mg/ml, 15 ml bottle): 1.12 % by weight | Level of impurity 5.5 months ([3]; 7 mg/ml, 15 ml bottle): 1.19 % by weight | Level of impurity 7 months ([3]; 7 mg/ml, 15 ml bottle): 1.23 % by weight | Level of impurity 10 months ([3]; 7 mg/ml, 15 ml bottle): 1.30 % by weight | Level of impurity 1 month ([3]; 7 mg/ml, 20 ml bottle): 0.70 % by weight | Level of impurity 2.5 months ([3]; 7 mg/ml, 20 ml bottle): 0.81 % by weight | Level of impurity 4 months ([3]; 7 mg/ml, 20 ml bottle): 0.97 % by weight | Level of impurity 5.5 months ([3]; 7 mg/ml, 20 ml bottle): 1.04 % by weight | Level of impurity 7 months ([3]; 7 mg/ml, 20 ml bottle): 1.07 % by weight | Level of impurity 10 months ([3]; 7 mg/ml, 20 ml bottle): 1.11 % by weight | R0, theoretical maximum surface area/volume ratio for which no impurity would be quantifiable [3, 7]: 0.10 | constant A of R=R0+A.c.I [3, 7]: 0.01 ml/(mg.m) | R0, theoretical maximum surface area/volume ratio for which no impurity would be quantifiable [3, 8]: 0.11 | constant A of R=R0+A.c.I [3, 8]: 0.009 ml/(mg.m)
